Experimental data: EP1359152B1, “Diazabicyclic derivatives as nicotinic acetylcholine receptor ligands” (ABBOTT LABORATORIES, priority 1999, dated 2000)
Where a name gives a salt, the structure may show the parent alone.

Each compound was assayed on mice (assay: Mouse hot plate paradigm (analgesic effect, latency until tenth jump)). Conditions: ip, 0.5 h, minimally effective dose among doses tested, intraperitoneal, dosed 30 minutes prior to testing, hot plate 55 °C, cut-off 180 seconds, increase in tenth jump latency relative to control, read-out: (MED).
Type: in vivo
Description: An in vivo protocol was utilized to determine the effectiveness of nicotinic acetylcholine receptor ligands as analgesic agents in the mouse hot plate paradigm.
Separate groups of mice, (n=8/group) were utilized for each dose group. All drugs were administered by the intraperitoneal route of administration. Test drugs were dissolved in water to make a 6.2 mM stock solution. Animals were dosed with this solution (10 mL/kg body weight) for a 62 micromol/kg dose. Lower doses were administered similarly, following serial dilution of the stock solution in half-log increments. Animals were dosed 30 minutes prior to testing in the hot plate. The hotplate utilized was an automated analgesia monitor (Model #AHP16AN, Omnitech Electronics, Inc. of Columbus, Ohio). The temperature of the hot plate was maintained at 55 °C and a cut-off time of 180 seconds was utilized. Latency until the tenth jump was recorded as the dependent measure. An increase in the tenth jump latency relative to the control was considered an effect.

| Structure (SMILES) | minimal effective dose [µmol/kg] |
| --- | --- |
| NC(=O)c1cncc(N2C[C@@H]3C[C@H]2CN3)c1 [Example 38, (1S,4S)-2-(5-aminocarbonyl-3-pyridinyl)-2,5-diazabicyclo[2.2.1]heptane bis(4-methylbenzenesulfonate)] | 19 |
| c1cncc(N2C[C@H]3C[C@@H]2CN3)c1 [Example 24, (1R,4R)-2-(3-pyridinyl)-2,5-diazabicyclo[2.2.1]heptane 4-methylbenzenesulfonate] | 6.2 |
| Oc1cc(N2C[C@H]3C[C@@H]2CN3)cnc1Cl [Example 40, (1R,4R)-2-(6-chloro-5-hydroxy-3-pyridinyl)-2,5-diazabicyclo[2.2.1]heptane 4-methylbenzenesulfonate] | 19 |
| Clc1ccc(N2C[C@H]3C[C@@H]2CN3)nn1 [Example 16, (1R,4R)-2-(6-chloro-3-pyridazinyl)-2,5-diazabicyclo[2.2.1]heptane bis(4-methylbenzenesulfonate)] | 6.2 |

What follows are compounds tested against T1, neuronal nicotinic acetylcholine receptors (Rattus norvegicus, UniProt P09483+P12390) (assay: [3H]-cytisine binding to neuronal nicotinic acetylcholine receptors, crude synaptic membranes from whole rat brain). Conditions: not given.
T1 construct: crude synaptic membrane preparations from whole rat brain; from tissue; host or cells: whole rat brain, crude synaptic membranes
T1 sequence (P09483 31-630): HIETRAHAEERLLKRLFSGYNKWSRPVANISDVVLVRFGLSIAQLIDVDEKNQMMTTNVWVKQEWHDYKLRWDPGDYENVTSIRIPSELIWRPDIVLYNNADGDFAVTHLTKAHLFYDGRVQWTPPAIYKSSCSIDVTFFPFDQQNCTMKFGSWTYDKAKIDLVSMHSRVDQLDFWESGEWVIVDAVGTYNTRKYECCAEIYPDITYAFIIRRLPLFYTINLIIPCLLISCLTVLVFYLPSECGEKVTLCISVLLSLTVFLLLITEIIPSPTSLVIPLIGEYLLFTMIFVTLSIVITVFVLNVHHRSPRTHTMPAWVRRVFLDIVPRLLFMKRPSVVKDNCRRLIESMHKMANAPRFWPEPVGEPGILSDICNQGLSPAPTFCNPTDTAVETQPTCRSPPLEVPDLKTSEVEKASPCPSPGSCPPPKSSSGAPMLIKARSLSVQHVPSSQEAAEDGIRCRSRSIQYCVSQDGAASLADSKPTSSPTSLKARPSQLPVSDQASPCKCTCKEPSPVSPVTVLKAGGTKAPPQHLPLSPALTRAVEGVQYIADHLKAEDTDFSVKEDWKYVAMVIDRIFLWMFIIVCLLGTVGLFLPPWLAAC
T1 sequence (P12390 25-500): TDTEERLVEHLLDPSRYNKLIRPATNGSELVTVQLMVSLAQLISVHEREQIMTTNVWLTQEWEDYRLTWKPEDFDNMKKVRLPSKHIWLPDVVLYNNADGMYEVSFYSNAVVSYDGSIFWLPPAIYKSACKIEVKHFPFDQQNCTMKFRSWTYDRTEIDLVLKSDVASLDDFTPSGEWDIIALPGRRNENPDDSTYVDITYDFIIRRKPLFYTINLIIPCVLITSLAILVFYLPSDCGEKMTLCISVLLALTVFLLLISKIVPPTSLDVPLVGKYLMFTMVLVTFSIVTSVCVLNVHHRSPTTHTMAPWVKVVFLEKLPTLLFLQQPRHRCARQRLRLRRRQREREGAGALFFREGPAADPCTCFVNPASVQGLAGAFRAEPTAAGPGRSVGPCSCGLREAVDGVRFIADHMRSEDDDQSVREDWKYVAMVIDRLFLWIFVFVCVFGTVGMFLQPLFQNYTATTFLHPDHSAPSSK
Description: The In Vitro protocols for determination of nicotinic acetylcholine channel receptor binding potencies of ligands were determined as follows.
Washed membranes were stored at-80 °C prior to use. Frozen aliquots were slowly thawed and resuspended in 20 volumes of buffer (containing: 120 mM NaCl, 5 mM KCI, 2 mM MgCl2, 2 mM CaCl2 and 50 mM Tris-Cl, pH 7.4 @4 °C). After centrifuging at 20,000x g for 15 minutes, the pellets were resuspended in 30 volumes of buffer.
The test compounds were dissolved in water to make 10 mM stock solutions. Each solution was then diluted (1:100) with buffer (as above) and further taken through seven serial log dilutions to produce test solutions from 10^-5 to 10^-11 M.
Samples were incubated for 60 minutes at 4 °C, then rapidly filtered through Whatman GF/B filters presoaked in 0.5% polyethyleneimine using 3 x 4 mL of ice-cold buffer. The filters are counted in 4 mL of Ecolume® (ICN). Nonspecific binding was determined in the presence of 10 µM (-)-nicotine and values were expressed as a percentage of total binding. IC50 values were determined with the RS-1 (BBN) nonlinear least squares curve-fitting program and IC50 values were converted to Ki values using the Cheng and Prusoff correction (Ki=IC50/(1+[ligand]/Kd of ligand).

| Structure (SMILES) | Ki [nM] |
| --- | --- |
| NC(=O)c1cncc(N2C[C@@H]3C[C@H]2CN3)c1 [Example 38, (1S,4S)-2-(5-aminocarbonyl-3-pyridinyl)-2,5-diazabicyclo[2.2.1]heptane bis(4-methylbenzenesulfonate)] | 24 |
| c1cncc(N2C[C@H]3C[C@@H]2CN3)c1 [Example 24, (1R,4R)-2-(3-pyridinyl)-2,5-diazabicyclo[2.2.1]heptane 4-methylbenzenesulfonate] | 0.012 |
| Oc1cc(N2C[C@H]3C[C@@H]2CN3)cnc1Cl [Example 40, (1R,4R)-2-(6-chloro-5-hydroxy-3-pyridinyl)-2,5-diazabicyclo[2.2.1]heptane 4-methylbenzenesulfonate] | 0.17 |
| c1cncc(N2CC3CNCC2C3)c1 (stereo not drawn) [Example 59, 6-(3-pyridinyl)-3,6-diazabicyclo[3.2.1]octane] | 2.2 |
| c1cncc(N2C[C@@H]3C[C@H]2CN3)c1 [Example 17, (1S,4S)-2-(3-pyridinyl)-2,5-diazabicyclo[2.2.1]heptane 4-methylbenzenesulfonate] | 0.063 |
| c1ncc(N2C[C@@H]3C[C@H]2CN3)cn1 [Example 52, (1S,4S)-2-(5-pyrimidinyl)-2,5-diazabicyclo[2.2.1]heptane 4-methylbenzenesulfonate] | 1 |
| c1ccc2ncc(N3C[C@@H]4C[C@H]3CN4)cc2c1 [Example 53, (1S,4S)-2-(3-quinolinyl)-2,5-diazabicyclo[2.2.1]heptane acetate] | 17 |
| Clc1ccc(N2C[C@@H]3C[C@H]2CN3)nc1 [Example 18, (1S,4S)-2-(5-chloro-2-pyridinyl)-2,5-diazabicyclo[2.2.1]heptane dihydrochloride, reference compound] | 400 |
| c1cnnc(N2C[C@@H]3C[C@H]2CN3)c1 [Example 29, (1S,4S)-2-(3-pyridazinyl)-2,5-diazabicyclo[2.2.1]heptane 4-methylbenzenesulfonate] | 37 |
| N#Cc1cncc(N2C[C@@H]3C[C@H]2CN3)c1 [Example 32, (1S,4S)-2-(5-cyano-3-pyridinyl)-2,5-diazabicyclo[2.2.1]heptane 4-methylbenzenesulfonate] | 1.6 |
| Nc1ccc(N2C[C@@H]3C[C@H]2CN3)cn1 [Example 3, (1S,4S)-2-(6-amino-3-pyridinyl)-2,5-diazabicyclo[2.2.1]heptane trihydrochloride] | 20 |
| COc1cncc(N2C[C@@H]3C[C@H]2CN3)c1 [Example 43, (1S,4S)-2-(5-methoxy-3-pyridinyl)-2,5-diazabicyclo[2.2.1]heptane bis(4-methylbenzenesulfonate)] | 0.57 |
| c1cncc(N2CC3CCC(C2)N3)c1 [Example 13, 3-(3-pyridinyl)-3,8-diazabicyclo[3.2.1]octane dihydrochloride] | 0.41 |
| Nc1ccc(N2CC3CCC(C2)N3)cn1 [Example 11, 3-(6-amino-3-pyridinyl)-3,8-diazabicyclo[3.2.1]octane trihydrochloride] | 37 |
| COC(=O)c1cc(N2C[C@@H]3C[C@H]2CN3)nnc1Cl [Example 9, (1S,4S)-2-(6-chloro-5-methoxycarbonyl-3-pyridazinyl)-2,5-diazabicyclo[2.2.1]heptane bis(4-methylbenzenesulfonate)] | > 10000 |
| Cc1cc(N2C[C@@H]3C[C@H]2CN3C)nnc1Cl [Example 6, (1S,4S)-2-(6-chloro-5-methyl-3-pyridazinyl)-5-methyl-2,5-diazabicyclo[2.2.1]heptane bis(4-methylbenzenesulfonate)] | 22 |
| Oc1cc(N2C[C@@H]3C[C@H]2CN3)cnc1Cl [Example 45, (1S,4S)-2-(6-chloro-5-hydroxy-3-pyridinyl)-2,5-diazabicyclo[2.2.1]heptane 4-methylbenzenesulfonate] | 1.6 |
| c1ccc(COc2cncc(N3C[C@@H]4C[C@H]3CN4)c2)cc1 [Example 21, (1S,4S)-2-[5-(benzyloxy)-3-pyridinyl]-2,5-diazabicyclo[2.2.1]heptane 4-methylbenzenesulfonate] | 0.33 |
| COc1cc(N2C[C@H]3C[C@@H]2CN3)cnc1Cl [Example 51, (1R,4R)-2-(6-chloro-5-methoxy-3-pyridinyl)-2,5-diazabicyclo[2.2.1]heptane 4-methylbenzenesulfonate] | 0.1 |
| c1cnc2cc(N3C[C@H]4C[C@@H]3CN4)sc2c1 [Example 55, (1R,4R)-2-(thieno[3,2-b]pyridin-2-yl)-2,5-diazabicyclo[2.2.1]heptane acetate] | 0.84 |
| c1cnnc(N2CC3CCC(C2)N3)c1 [Example 14, 3-(3-pyridazinyl)-3,8-diazabicyclo[3.2.1]octane dihydrochloride] | 11 |
| Clc1nnc(N2C[C@@H]3C[C@H]2CN3)c2ccccc12 [Example 7, (1S,4S)-2-(4-chloro-1-phthalazinyl)-2,5-diazabicyclo[2.2.1]heptane bis(4-methylbenzenesulfonate)] | 1900 |
| Clc1ccc(N2CC3CCC(C2)N3)cn1 [Example 12, 3-(6-chloro-3-pyridinyl)-3,8-diazabicyclo[3.2.1]octane dihydrochloride] | 93 |
| Clc1ccc(N2CC3CC2CCN3)cn1 (stereo not drawn) [Example 49, 6-(6-chloro-3-pyridinyl)-2,6-diazabicyclo[3.2.1]octane bis(4-methylbenzenesulfonate)] | 2.7 |
| CN1C[C@@H]2C[C@H]1CN2c1nnc(Cl)c2ccccc12 [Example 8, (1S,4S)-2-(4-chloro-1-phthalazinyl)-5-methyl-2,5-diazabicyclo[2.2.1]heptane bis(4-methylbenzenesulfonate)] | 2600 |
| Clc1ccc(N2C3CCNCC2CC3)cn1 (stereo not drawn) [Example 56, 9-(6-chloro-3-pyridinyl)-3,9-diazabicyclo[4.2.1]nonane fumarate] | 0.21 |
| O=[N+]([O-])c1ccc(N2CC3CCC(C2)N3)cn1 [Example 10, 3-(6-nitro-3-pyrdinyl)-3,8-diazabicyclo[3.2.1]octane dihydrochloride] | 37 |
| NCc1cncc(N2C[C@@H]3C[C@H]2CN3)c1 [Example 34, (1S,4S)-2-(5-aminomethyl-3-pyridinyl)-2,5-diazabicyclo[2.2.1]heptane trihydrochloride] | 140 |
| Cc1cc(N2C[C@@H]3C[C@H]2CN3)sn1 [Example 54, (1S,4S)-2-(3-methyl-5-isothiazolyl)-2.5-diazabicyclo[2.2.1]heptane acetate] | 5 |

Same assay, conditions: [3H]-CYT 1.25 nM, 60 minutes at 4 °C, whole rat brain membranes; Ki from IC50 by Cheng and Prusoff correction; read-out: Average Ki

| Structure (SMILES) | Ki [nM] |
| --- | --- |
| NC(=O)c1cncc(N2CC3CC2CN3)c1 [Example 50, (1R,4R)-2-(5-aminocarbonyl-3-pyridinyl)-2.5-diazabicvclo[2.2.1]heptane bis(4-methylbenzenesulfonate)] | 0.83 |
| O=[N+]([O-])c1ccc(N2CC3CC2CN3)cn1 [Example 28, (1S,4S)-2-(6-nitro-3-pyridinyl)-2.5-diazabicyclo[2.2.1]heptane] | 109 |
| c1cncc(N2CC3CCC2CN3)c1 (stereo not drawn) [Example 42, 2-(3-pyridinyl)-2.5-diazabicyclo[2.2.2]octane dihydrochloride] | 0.02 |
